From the NIST ThermoML archive (doi:10.1016/j.tca.2008.12.007)
Values joined by “and” are separate entries in the source; they are usually repeats but may differ in a detail not shown here. Identical values can stand only once.

Experiment: xn = mol fraction of the nth substance listed
Conditions: 101 kPa, Liquid, Vibrating tube method

C1CCCNCC1 [azacycloheptane] + O
mass density
Conditions	283.15 K	288.15 K	293.15 K	298.15 K	303.15 K	308.15 K	313.15 K
x2 = 0.0199	891.47 kg/m3	887.05 kg/m3	882.62 kg/m3	878.18 kg/m3	873.74 kg/m3	869.29 kg/m3	864.83 kg/m3
x2 = 0.0395	892.56 kg/m3	888.13 kg/m3	883.7 kg/m3	879.25 kg/m3	874.8 kg/m3	870.34 kg/m3	865.87 kg/m3
x2 = 0.0821	895.27 kg/m3	890.84 kg/m3	886.39 kg/m3	881.94 kg/m3	877.47 kg/m3	872.99 kg/m3	868.49 kg/m3
x2 = 0.1198	897.59 kg/m3	893.16 kg/m3	888.7 kg/m3	884.23 kg/m3	879.75 kg/m3	875.26 kg/m3	870.75 kg/m3
x2 = 0.1594	900.05 kg/m3	895.61 kg/m3	891.15 kg/m3	886.67 kg/m3	882.19 kg/m3	877.68 kg/m3	873.16 kg/m3
x2 = 0.1994	902.85 kg/m3	898.4 kg/m3	893.94 kg/m3	889.46 kg/m3	884.96 kg/m3	880.45 kg/m3	875.92 kg/m3
x2 = 0.2498	906.32 kg/m3	901.88 kg/m3	897.41 kg/m3	892.92 kg/m3	888.42 kg/m3	883.9 kg/m3	879.35 kg/m3
x2 = 0.3	909.81 kg/m3	905.38 kg/m3	900.91 kg/m3	896.42 kg/m3	891.91 kg/m3	887.38 kg/m3	–
x2 = 0.3499	913.73 kg/m3	909.3 kg/m3	904.84 kg/m3	900.36 kg/m3	895.85 kg/m3	891.32 kg/m3	–
x2 = 0.4	917.67 kg/m3	913.25 kg/m3	908.79 kg/m3	904.32 kg/m3	899.81 kg/m3	895.28 kg/m3	–
x2 = 0.4529	922.26 kg/m3	917.86 kg/m3	913.42 kg/m3	908.96 kg/m3	904.46 kg/m3	899.94 kg/m3	–
x2 = 0.5008	926.61 kg/m3	922.24 kg/m3	917.83 kg/m3	913.38 kg/m3	908.91 kg/m3	904.4 kg/m3	–
x2 = 0.5041	926.61 kg/m3	922.23 kg/m3	917.82 kg/m3	913.38 kg/m3	908.91 kg/m3	904.4 kg/m3	–
x2 = 0.5508	931.05 kg/m3	926.72 kg/m3	922.34 kg/m3	917.93 kg/m3	913.48 kg/m3	909 kg/m3	–
x2 = 0.5992	935.7 kg/m3	931.42 kg/m3	927.09 kg/m3	922.72 kg/m3	918.31 kg/m3	913.86 kg/m3	–
x2 = 0.65	941.01 kg/m3	936.79 kg/m3	932.53 kg/m3	928.22 kg/m3	923.88 kg/m3	919.49 kg/m3	–
x2 = 0.699	946.42 kg/m3	942.29 kg/m3	938.12 kg/m3	933.9 kg/m3	929.63 kg/m3	925.32 kg/m3	–
x2 = 0.7496	952.51 kg/m3	948.5 kg/m3	944.46 kg/m3	940.36 kg/m3	936.22 kg/m3	932.02 kg/m3	–
x2 = 0.7994	959.33 kg/m3	955.51 kg/m3	951.64 kg/m3	947.71 kg/m3	943.73 kg/m3	939.69 kg/m3	–
x2 = 0.8398	965.5 kg/m3	961.88 kg/m3	958.2 kg/m3	954.47 kg/m3	950.68 kg/m3	946.83 kg/m3	–
x2 = 0.8799	972.62 kg/m3	969.3 kg/m3	965.9 kg/m3	962.45 kg/m3	958.91 kg/m3	955.31 kg/m3	–
x2 = 0.92	981.18 kg/m3	978.28 kg/m3	975.3 kg/m3	972.24 kg/m3	969.1 kg/m3	965.86 kg/m3	–
x2 = 0.9597	–	–	–	984.66 kg/m3 and 984.68 kg/m3	–	–	–
x2 = 0.9599	991.53 kg/m3	989.32 kg/m3	986.99 kg/m3	984.54 kg/m3	981.98 kg/m3	979.29 kg/m3	–
x2 = 0.96	991.6 kg/m3	989.39 kg/m3	987.06 kg/m3	984.61 kg/m3	982.04 kg/m3	979.35 kg/m3	–
x2 = 0.9699	994.44 kg/m3	992.49 kg/m3	990.4 kg/m3	988.16 kg/m3	985.8 kg/m3	983.3 kg/m3	–
x2 = 0.9798	–	–	–	991.9 kg/m3	–	–	–
x2 = 0.98	997.1 kg/m3	995.56 kg/m3	993.8 kg/m3	991.86 kg/m3	989.75 kg/m3	987.48 kg/m3	–
x2 = 0.9851	–	–	–	993.77 kg/m3	–	–	–
x2 = 0.9882	–	–	–	994.59 kg/m3	–	–	–
x2 = 0.9899	–	–	–	994.98 kg/m3	–	–	–
x2 = 0.9921	–	–	–	995.43 kg/m3	–	–	–
x2 = 0.994	–	–	–	995.81 kg/m3	–	–	–
